Holding throughout (type): cell-based
For series [1], the target named is Nav 1.5 (Homo sapiens (Human), UniProt Q14524). Description: Nav 1.5 in vitro assay, IonWorks Quattro (IWQ) population patch-clamp. The note with it: HEK 293 cells stably transfected with Nav 1.5; 26th pulse to -20 mV. The method, then:
(§1) Nav 1.7 and Nav 1.5 In Vitro Assays
(§2) HEK 293 cells stably transfected with either Nav 1.7 or with Nav 1.5 were recorded in population patch-clamp mode with the IonWorks® Quattro automated electrophysiology system in accordance with the manufacturer's specifications (Molecular Devices, LLC, Sunnyvale, Calif.). Sodium channel currents were measured in response to a train of depolarizations that induced successively greater inactivation.
(§3) Cells were held at −110 mV for three seconds (Nav 1.7) or half a second (Nav 1.5) from a holding voltage of −15 mV, then put through a series of 26 pulses of 150 msec duration to −20 mV at a frequency of 5 Hz. Cells were then left unclamped for a period of 3 to 8 minutes while a single concentration of test compound was added. Cells were then reclamped and put through the same voltage protocol. Current at the end of the 26th pulse to −20 mV was subtracted from the peak current evoked by the 26th pulse to −20 mV to correct for leak current. Percent block was calculated for each concentration in duplicate, and IC50 curves were fitted to percent block as a function of concentration.

Series [2] concerns the target T1, Nav 1.7 (Homo sapiens (Human), UniProt Q15858). The series is described as follows: Nav 1.7 in vitro PX assay, PatchXpress whole cell voltage clamp. The note with it: HEK 293 cells stably transfected with human Nav1.7; for IC50: partially inactivated state (20 to 50% inactivation). The method, boiled down:
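Partially inactivated channels (20–50% inactivation at holding potential) were probed on automated patch clamp in stably transfected HEK293 cells, stepping to −10 mV for 20 msec every 10 s (0.1 Hz).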

The target of series [3] is T1, Nav 1.7. The series is described as follows: Nav 1.7 in vitro assay, IonWorks Quattro (IWQ) population patch-clamp. Conditions: HEK 293 cells stably transfected with Nav 1.7; 26th pulse to -20 mV. The method, then:
as §1, §2, §3
(In patch-clamp work, channel activity is measured electrically.)

Nav 1.5, sequence (Q14524 whole entry): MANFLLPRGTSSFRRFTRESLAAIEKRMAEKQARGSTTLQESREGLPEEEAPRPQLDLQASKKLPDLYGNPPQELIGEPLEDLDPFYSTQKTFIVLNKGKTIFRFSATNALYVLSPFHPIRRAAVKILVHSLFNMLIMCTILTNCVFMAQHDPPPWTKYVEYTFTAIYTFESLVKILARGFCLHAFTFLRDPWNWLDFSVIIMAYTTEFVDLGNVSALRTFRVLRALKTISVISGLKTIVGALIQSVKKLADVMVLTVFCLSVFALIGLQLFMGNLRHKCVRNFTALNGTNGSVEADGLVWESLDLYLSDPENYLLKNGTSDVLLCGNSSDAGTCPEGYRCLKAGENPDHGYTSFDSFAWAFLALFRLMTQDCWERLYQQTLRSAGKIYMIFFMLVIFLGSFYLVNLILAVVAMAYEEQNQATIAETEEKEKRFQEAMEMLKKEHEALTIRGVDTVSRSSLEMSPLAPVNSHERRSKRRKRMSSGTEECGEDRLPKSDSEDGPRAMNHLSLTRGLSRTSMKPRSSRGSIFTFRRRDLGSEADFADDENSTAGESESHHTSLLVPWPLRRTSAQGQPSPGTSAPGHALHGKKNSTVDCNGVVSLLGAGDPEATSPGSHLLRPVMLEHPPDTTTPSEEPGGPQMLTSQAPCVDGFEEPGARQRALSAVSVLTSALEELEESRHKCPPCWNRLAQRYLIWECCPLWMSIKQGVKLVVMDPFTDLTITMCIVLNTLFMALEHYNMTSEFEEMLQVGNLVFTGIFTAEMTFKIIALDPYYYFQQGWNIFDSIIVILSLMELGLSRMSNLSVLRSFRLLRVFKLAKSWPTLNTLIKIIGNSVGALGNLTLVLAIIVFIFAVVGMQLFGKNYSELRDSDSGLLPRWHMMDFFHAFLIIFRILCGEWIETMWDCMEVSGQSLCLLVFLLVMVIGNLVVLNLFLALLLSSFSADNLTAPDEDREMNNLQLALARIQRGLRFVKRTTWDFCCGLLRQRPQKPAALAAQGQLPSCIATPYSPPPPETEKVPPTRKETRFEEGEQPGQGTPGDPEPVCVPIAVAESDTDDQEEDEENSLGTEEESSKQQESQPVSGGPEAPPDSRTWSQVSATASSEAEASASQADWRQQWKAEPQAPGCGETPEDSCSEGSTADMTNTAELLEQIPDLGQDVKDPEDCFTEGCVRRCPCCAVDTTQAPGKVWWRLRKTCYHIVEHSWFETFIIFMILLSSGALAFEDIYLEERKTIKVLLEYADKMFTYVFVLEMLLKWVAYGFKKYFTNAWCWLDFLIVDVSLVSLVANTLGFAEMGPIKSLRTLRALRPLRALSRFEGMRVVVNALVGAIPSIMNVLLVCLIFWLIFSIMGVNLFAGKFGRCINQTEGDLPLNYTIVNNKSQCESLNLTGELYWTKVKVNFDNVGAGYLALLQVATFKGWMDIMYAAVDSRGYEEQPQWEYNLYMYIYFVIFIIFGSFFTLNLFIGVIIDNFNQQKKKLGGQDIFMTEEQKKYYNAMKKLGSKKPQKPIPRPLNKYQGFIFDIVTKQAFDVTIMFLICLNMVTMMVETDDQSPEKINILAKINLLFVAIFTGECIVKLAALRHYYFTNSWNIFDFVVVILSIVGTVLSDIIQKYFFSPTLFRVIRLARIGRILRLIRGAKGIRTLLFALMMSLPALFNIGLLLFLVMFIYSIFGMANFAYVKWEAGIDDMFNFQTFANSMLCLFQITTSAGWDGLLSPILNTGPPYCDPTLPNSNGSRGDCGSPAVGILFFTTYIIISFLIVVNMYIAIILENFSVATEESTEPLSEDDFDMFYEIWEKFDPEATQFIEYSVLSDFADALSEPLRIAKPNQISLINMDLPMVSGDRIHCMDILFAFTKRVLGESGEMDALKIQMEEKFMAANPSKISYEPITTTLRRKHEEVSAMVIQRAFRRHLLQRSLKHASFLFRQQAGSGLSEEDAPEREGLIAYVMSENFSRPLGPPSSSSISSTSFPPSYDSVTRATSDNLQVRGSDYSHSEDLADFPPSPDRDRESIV
T1 sequence (Q15858 whole entry): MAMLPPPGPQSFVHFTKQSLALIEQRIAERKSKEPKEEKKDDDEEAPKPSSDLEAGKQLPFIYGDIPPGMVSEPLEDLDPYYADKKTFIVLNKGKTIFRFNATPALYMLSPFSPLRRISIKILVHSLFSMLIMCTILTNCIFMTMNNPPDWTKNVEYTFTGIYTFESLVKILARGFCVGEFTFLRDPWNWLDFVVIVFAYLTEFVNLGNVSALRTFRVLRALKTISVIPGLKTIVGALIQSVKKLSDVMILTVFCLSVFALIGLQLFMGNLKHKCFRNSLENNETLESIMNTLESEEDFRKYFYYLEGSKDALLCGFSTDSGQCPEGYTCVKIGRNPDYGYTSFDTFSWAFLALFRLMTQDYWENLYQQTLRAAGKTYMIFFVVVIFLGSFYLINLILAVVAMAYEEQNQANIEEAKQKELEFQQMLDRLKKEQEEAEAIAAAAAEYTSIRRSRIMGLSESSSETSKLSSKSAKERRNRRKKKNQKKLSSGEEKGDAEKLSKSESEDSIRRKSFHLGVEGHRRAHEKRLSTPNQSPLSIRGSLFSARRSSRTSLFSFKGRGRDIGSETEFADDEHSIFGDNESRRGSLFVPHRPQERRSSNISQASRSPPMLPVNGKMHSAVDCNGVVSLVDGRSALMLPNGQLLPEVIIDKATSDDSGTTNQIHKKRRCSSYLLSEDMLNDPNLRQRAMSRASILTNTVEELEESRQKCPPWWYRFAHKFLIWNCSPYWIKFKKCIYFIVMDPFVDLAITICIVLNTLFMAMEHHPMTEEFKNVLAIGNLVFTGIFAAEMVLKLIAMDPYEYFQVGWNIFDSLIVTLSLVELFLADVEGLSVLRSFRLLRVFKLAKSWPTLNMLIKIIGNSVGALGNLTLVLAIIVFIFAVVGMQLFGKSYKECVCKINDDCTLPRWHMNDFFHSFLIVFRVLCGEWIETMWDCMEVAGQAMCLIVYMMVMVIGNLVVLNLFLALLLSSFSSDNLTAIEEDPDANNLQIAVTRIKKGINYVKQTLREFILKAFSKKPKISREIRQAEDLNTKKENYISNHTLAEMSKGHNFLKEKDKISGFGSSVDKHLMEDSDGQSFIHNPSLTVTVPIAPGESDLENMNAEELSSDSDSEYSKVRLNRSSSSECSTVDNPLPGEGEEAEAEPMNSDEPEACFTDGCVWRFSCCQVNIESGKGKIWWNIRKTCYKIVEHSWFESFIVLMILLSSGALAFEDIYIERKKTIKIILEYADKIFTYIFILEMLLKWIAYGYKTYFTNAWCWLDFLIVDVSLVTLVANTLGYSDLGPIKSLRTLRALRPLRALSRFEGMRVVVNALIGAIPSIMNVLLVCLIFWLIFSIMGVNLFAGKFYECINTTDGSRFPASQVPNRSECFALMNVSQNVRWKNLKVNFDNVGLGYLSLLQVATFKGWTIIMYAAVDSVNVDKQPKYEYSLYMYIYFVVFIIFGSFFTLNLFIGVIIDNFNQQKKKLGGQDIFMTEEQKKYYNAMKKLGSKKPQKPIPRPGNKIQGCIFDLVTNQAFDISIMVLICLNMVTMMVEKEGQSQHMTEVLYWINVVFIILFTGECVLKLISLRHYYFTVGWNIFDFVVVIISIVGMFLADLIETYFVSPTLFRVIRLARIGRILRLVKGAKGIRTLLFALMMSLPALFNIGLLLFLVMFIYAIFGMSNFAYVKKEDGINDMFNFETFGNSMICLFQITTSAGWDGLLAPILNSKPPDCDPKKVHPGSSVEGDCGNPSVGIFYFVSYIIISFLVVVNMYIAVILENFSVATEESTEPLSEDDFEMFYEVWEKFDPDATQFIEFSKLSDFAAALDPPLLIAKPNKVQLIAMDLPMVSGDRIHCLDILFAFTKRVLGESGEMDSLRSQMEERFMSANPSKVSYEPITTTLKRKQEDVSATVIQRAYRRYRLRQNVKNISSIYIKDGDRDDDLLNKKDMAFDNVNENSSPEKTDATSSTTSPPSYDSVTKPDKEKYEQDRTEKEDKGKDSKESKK

Consider `CC[C@H]1CN(c2ccc(C(F)(F)F)cc2C#N)c2ccc(S(=O)(=O)Nc3nccs3)cc2O1` (single isomer, unassigned) [Example 101], for which the IC50 (usually the concentration needed to halve the response being measured) in series [1] was 8500 nM; in series [2], 3630 nM; in series [3] it was 367 nM.
With `CCC1CN(c2ccc(C(F)(F)F)cc2C#N)c2ccc(S(=O)(=O)Nc3nccs3)cc2O1` (single isomer, unassigned) [Example 102], the results for the IC50 in series [1], in series [2] and in series [3] were > 10000 nM, 8890 nM and 1390 nM, respectively.
In the same order, the values of `COc1cc(Cl)ccc1N1C[C@H](C)Oc2cc(S(=O)(=O)Nc3nccs3)ccc21` (single isomer, unassigned) [Example 104] are > 10000 nM, 657 nM and 110 nM.
On to `COc1cc(Cl)ccc1N1C[C@@H](C)Oc2cc(S(=O)(=O)Nc3nccs3)ccc21` (single isomer, unassigned) [Example 105], for which the values for the IC50 in series [1], in series [2] and in series [3] were > 10000 nM, 894 nM and 53.5 nM, respectively.
For the compound `COc1cc(C#N)ccc1N1C[C@H](C)Oc2cc(S(=O)(=O)Nc3nccs3)ccc21` (single isomer, unassigned) [Example 107], the results for the IC50 in series [1], in series [2] and in series [3] were > 10000 nM, 309 nM and 28.5 nM, respectively.
Consider `COc1cc(C#N)ccc1N1C[C@@H](C)Oc2cc(S(=O)(=O)Nc3nccs3)ccc21` (single isomer, unassigned) [Example 108], for which the IC50 in series [1] is > 10000 nM; in series [2] it was 303 nM; in series [3] it was 45.5 nM.
As to `O=S(=O)(Nc1nccs1)c1ccc2c(c1)OCCN2c1ccc(C(F)(F)F)cc1C[C@H](O)CO` (single isomer, unassigned) [Example 208], the IC50 in series [1] was 896 nM; in series [2], 258 nM; in series [3], 18.5 nM.
With `O=S(=O)(Nc1nccs1)c1ccc2c(c1)OCCN2c1ccc(C(F)(F)F)cc1C[C@@H](O)CO` (single isomer, unassigned) [Example 209], the half-maximal inhibitory concentration (IC50) worked out at 497 nM in series [1], 165 nM in series [2] and 12.5 nM in series [3].
For the compound `O=S(=O)(Nc1ncns1)c1ccc2c(c1)OCCN2c1ccc(C(F)(F)F)cc1Br` [Example 1, 4-(2-Bromo-4-(Trifluoromethyl)Phenyl)-N-(1,2,4-Thiadiazol-5-Yl)-3,4-Dihydro-2H-Benzo[B][1,4]Oxazine-7-Sulfonamide], the IC50 in series [1] was > 10000 nM; in series [2], 58.9 nM; in series [3] it was 11.3 nM.
On to `O=S(=O)(Nc1ncns1)c1ccc2c(c1)OCCN2c1ccc(C(F)(F)F)cc1Cl` [Example 2, 4-(2-Chloro-4-(Trifluoromethyl)Phenyl)-N-(1,2,4-Thiadiazol-5-Yl)-3,4-Dihydro-2H-Benzo[B][1,4]Oxazine-7-Sulfonamide], for which the IC50 is > 10000 nM in series [1], 38.6 nM in series [2] and 7.83 nM in series [3].
In the same order, the values of `Cn1nccc1-c1cc(C(F)(F)F)ccc1N1CCOc2cc(S(=O)(=O)Nc3ncns3)ccc21` [Example 3, 4-(2-(1-Methyl-1H-Pyrazol-5-Yl)-4-(Trifluoromethyl)Phenyl)-N-(1,2,4-Thiadiazol-5-Yl)-3,4-Dihydro-2H-Benzo[B][1,4]Oxazine-7-Sulfonamide] are 1870 nM, 57.7 nM and 10.8 nM.
Consider `O=S(=O)(Nc1ncns1)c1ccc2c(c1)OCCN2c1ccc(C(F)(F)F)cc1-c1cn[nH]c1` [Example 4, 4-(2-(1H-Pyrazol-4-Yl)-4-(Trifluoromethyl)Phenyl)-N-(1,2,4-Thiadiazol-5-Yl)-3,4-Dihydro-2H-Benzo[B][1,4]Oxazine-7-Sulfonamide], for which the results for the IC50 in series [1], in series [2] and in series [3] were 944 nM, 57.6 nM and 9.33 nM, respectively.
Regarding `O=S(=O)(Nc1nccs1)c1ccc2c(c1)OCCN2c1ccc(C(F)(F)F)cc1Cl` [Example 5, 4-(2-Chloro-4-(Trifluoromethyl)Phenyl)-N-(Thiazol-2-Yl)-3,4-Dihydro-2H-Benzo[B][1,4]Oxazine-7-Sulfonamide], the results for the IC50 in series [1], in series [2] and in series [3] were 4030 nM, 322 nM and 245 nM, respectively.
As for `O=S(=O)(Nc1ncns1)c1ccc2c(c1)OCCN2c1ccc(C(F)(F)F)cc1C1=CCNCC1` [Example 7, 4-(2-(1,2,3,6-Tetrahydropyridin-4-Yl)-4-(Trifluoromethyl)Phenyl)-N-(1,2,4-Thiadiazol-5-Yl)-3,4-Dihydro-2H-Benzo[B][1,4]Oxazine-7-Sulfonamide], the IC50 was determined as 349 nM in series [1], 23.7 nM in series [2] and 4.4 nM in series [3].
In the same order, the values of `NCc1nsc(NS(=O)(=O)c2ccc3c(c2)OCCN3c2ccc(C(F)(F)F)cc2Cl)n1` [Example 8, N-(3-(Aminomethyl)-1,2,4-Thiadiazol-5-Yl)-4-(2-Chloro-4-(Trifluoromethyl)Phenyl)-3,4-Dihydro-2H-Benzo[B][1,4]Oxazine-7-Sulfonamide 2,2,2-Trifluoroacetate] are > 10000 nM, 16000 nM and 7580 nM.
Consider `O=S(=O)(Nc1cc(Cl)ncn1)c1ccc2c(c1)OCCN2c1ccc(C(F)(F)F)cc1Cl` [Example 9, 4-(2-Chloro-4-(Trifluoromethyl)Phenyl)-N-(6-Chloropyrimidin-4-Yl)-3,4-Dihydro-2H-Benzo[B][1,4]Oxazine-7-Sulfonamide], for which the IC50 in series [1] was > 10000 nM; in series [2] it was 6320 nM; in series [3] it was 876 nM.
For `Cc1nsc(NS(=O)(=O)c2ccc3c(c2)OCCN3c2ccc(C(F)(F)F)cc2Cl)n1` [Example 10, 4-(2-Chloro-4-(Trifluoromethyl)Phenyl)-N-(3-Methyl-1,2,4-Thiadiazol-5-Yl)-3,4-Dihydro-2H-Benzo[B][1,4]Oxazine-7-Sulfonamide], the IC50 is > 10000 nM in series [1], 6750 nM in series [2] and 4610 nM in series [3].
For `O=S(=O)(Nc1cscn1)c1ccc2c(c1)OCCN2c1ccc(C(F)(F)F)cc1Cl` [Example 11, 4-(2-Chloro-4-(Trifluoromethyl)Phenyl)-N-(Thiazol-4-Yl)-3,4-Dihydro-2H-Benzo[B][1,4]Oxazine-7-Sulfonamide], the IC50 in series [1] is > 10000 nM; in series [2] it was 12600 nM; in series [3], 3210 nM.
Consider `O=S(=O)(Nc1ccon1)c1ccc2c(c1)OCCN2c1ccc(C(F)(F)F)cc1Cl` [Example 13, 4-(2-Chloro-4-(Trifluoromethyl)Phenyl)-N-(Isoxazol-3-Yl)-3,4-Dihydro-2H-Benzo[B][1,4]Oxazine-7-Sulfonamide], for which the IC50 was > 10000 nM in series [1], 5160 nM in series [2] and 1720 nM in series [3].
For the compound `O=S(=O)(Nc1ncccn1)c1ccc2c(c1)OCCN2c1ccc(C(F)(F)F)cc1Cl` [Example 16, 4-(2-Chloro-4-(Trifluoromethyl)Phenyl)-N-(Pyrimidin-2-Yl)-3,4-Dihydro-2H-Benzo[B][1,4]Oxazine-7-Sulfonamide], the figures for the IC50 in series [1], in series [2] and in series [3] were > 10000 nM, 11900 nM and 1860 nM, respectively.
For the compound `O=S(=O)(Nc1ccc(F)cn1)c1ccc2c(c1)OCCN2c1ccc(C(F)(F)F)cc1Cl` [Example 17, 4-(2-Chloro-4-(Trifluoromethyl)Phenyl)-N-(5-Fluoropyridin-2-Yl)-3,4-Dihydro-2H-Benzo[B][1,4]Oxazine-7-Sulfonamide], the IC50 in series [1] was > 10000 nM; in series [3], 3630 nM. For the same compound, the inhibition (commonly how much of the control response was suppressed) at 4.9 µM in series [2] (HEK293, values marked *, 4.9 μM, read-out: Nav 1.7 PX percent inhibition at 4.9 μM) worked out at 24.1%.
Take `O=S(=O)(Nc1ncns1)c1ccc2c(c1)NCCN2c1ccc(C(F)(F)F)cc1Cl` [Example 18, 1-(2-Chloro-4-(Trifluoromethyl)Phenyl)-N-(1,2,4-Thiadiazol-5-Yl)-1,2,3,4-Tetrahydroquinoxaline-6-Sulfonamide]: the IC50 in series [1] was > 10000 nM; in series [2] it was 946 nM; in series [3] it was 1040 nM.
The like results for `CN1CCN(c2ccc(C(F)(F)F)cc2Cl)c2ccc(S(=O)(=O)Nc3ncns3)cc21` [Example 19, 1-(2-Chloro-4-(Trifluoromethyl)Phenyl)-4-Methyl-N-(1,2,4-Thiadiazol-5-Yl)-1,2,3,4-Tetrahydroquinoxaline-6-Sulfonamide] were, in that order, > 10000 nM, 4890 nM and 1180 nM.
As for `O=S(=O)(Nc1ncns1)c1ccc2c(c1)OCCN2c1ccc(C(F)(F)F)cc1-c1cccnc1` [Example 21, 4-(2-(Pyridin-3-Yl)-4-(Trifluoromethyl)Phenyl)-N-(1,2,4-Thiadiazol-5-Yl)-3,4-Dihydro-2H-Benzo[B][1,4]Oxazine-7-Sulfonamide], the values for the IC50 in series [1], in series [2] and in series [3] were 1330 nM, 162 nM and 15.8 nM, respectively.
